The supplement of paper PMC8967900

Key:
Test in all cases: selective drug sensitivity score (sDSS, relative to normal bone marrow) (sDSS (score)); higher = more potent and effective on the cell line relative to normal bone marrow cells
Settings in all cases: 72 h
KARPAS-45 = system: KARPAS-45
MOLT-4 = system: MOLT-4
PF-382 = system: PF-382
COG-LL-394h = system: COG-LL-394h
RCH-ACV = system: RCH-ACV
HPB-ALL = system: HPB-ALL
CCRF-CEM = system: CCRF-CEM
380 = system: 380
ALL-SIL = system: ALL-SIL
COG-LL-402h = system: COG-LL-402h
COG-LL-332h = system: COG-LL-332h
RPMI-8402 = system: RPMI-8402
KASUMI-10 = system: KASUMI-10
MOLT-14 = system: MOLT-14
MHH-CALL-3 = system: MHH-CALL-3
NALM-6 = system: NALM-6
DND-41 = system: DND-41
NALM-16 = system: NALM-16
KASUMI-2 = system: KASUMI-2
P12-ICHIKAWA = system: P12-ICHIKAWA
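Further: ALL cell lines in 384-well plates, five doses spanning 10,000-fold, each plate scaled between vehicle and 100 µmol/L benzalkonium chloride controls, sDSS an adapted area-under-curve metric.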

SMILES | selective drug sensitivity score (KARPAS-45) | selective drug sensitivity score (MOLT-4) | selective drug sensitivity score (PF-382) | selective drug sensitivity score (COG-LL-394h) | selective drug sensitivity score (RCH-ACV) | selective drug sensitivity score (HPB-ALL) | selective drug sensitivity score (CCRF-CEM) | selective drug sensitivity score 380 | selective drug sensitivity score (ALL-SIL) | selective drug sensitivity score (COG-LL-402h) | selective drug sensitivity score (COG-LL-332h) | selective drug sensitivity score (RPMI-8402) | selective drug sensitivity score (KASUMI-10) | selective drug sensitivity score (MOLT-14) | selective drug sensitivity score (MHH-CALL-3) | selective drug sensitivity score (NALM-6) | selective drug sensitivity score (DND-41) | selective drug sensitivity score (NALM-16) | selective drug sensitivity score (KASUMI-2) | selective drug sensitivity score (P12-ICHIKAWA)
C1=N/C2=N/c3ccc(OCCN4CCCC4)c(c3)COC/C=C/COCc3cccc(c3)C(=C1)N2 [Pacritinib] (top concentration 10000 nM) | -2.9 | -7.3 | -7.5 | -4 | 9.2 | -5.7 | -6.1 | -8.7 | -3.6 | 2.9 | -4.1 | -5.7 | 2.2 | -4 | -7.7 | -2.3 | -4.7 | -8.2 | -2.3 | -7.3
Cc1[nH]c2ccccc2c1CCNCc1ccc(/C=C/C(=O)NO)cc1 [Panobinostat] (top concentration 1000 nM) | 10.7 | 2.94 | 4.34 | 2.84 | 14.1 | 10.1 | 5.34 | 12.1 | 6.04 | 14.6 | 3.64 | 4.14 | 7.74 | 6.74 | 15.6 | 4.14 | 5.04 | 2.94 | 14.3 | 4.14
Cc1ccc(Nc2nccc(N(C)c3ccc4c(C)n(C)nc4c3)n2)cc1S(N)(=O)=O [Pazopanib] (top concentration 10000 nM) | 1.74 | -1.06 | 1.74 | -0.76 | 10.5 | 0.64 | 0.04 | -0.86 | 2.64 | -1.26 | 0.14 | 2.44 | 2.24 | -1.26 | -1.26 | -1.26 | 0.04 | -1.26 | 3.44 | 1.04
Nc1nc2[nH]cc(CCc3ccc(C(=O)N[C@@H](CCC(=O)O)C(=O)O)cc3)c2c(=O)[nH]1 [Pemetrexed] (top concentration 10000 nM) | 9.98 | 21.5 | 12.1 | 1.58 | 28.8 | 9.98 | 23.6 | 22.6 | 15.5 | 7.98 | 21.9 | 24.8 | 19.1 | 20.2 | 13.5 | 24.5 | 18.6 | 7.38 | 19.3 | 26.1
Cc1ccc(C(=O)Nc2ccc(CN3CCN(C)CC3)c(C(F)(F)F)c2)cc1C#Cc1cnc2cccnn12 [Ponatinib] (top concentration 1000 nM) | 5.02 | 4.32 | 6.62 | 1.12 | 14.8 | -2.18 | 1.82 | 9.52 | 41.7 | 10.2 | 17.6 | 2.72 | 16 | 7.42 | 10.7 | 0.82 | 1.42 | -0.08 | -1.78 | 1.22
C[C@]12C=CC(=O)C=C1CC[C@@H]1[C@@H]2[C@@H](O)C[C@@]2(C)[C@H]1CC[C@]2(O)C(=O)CO [Prednisolone] (top concentration 10000 nM) | 12.3 | 1.1 | -1.6 | -3 | 26.8 | 2.2 | 6.4 | 23.8 | 8.9 | 16.9 | 2.5 | -1.3 | -3 | -0.5 | 26.7 | 15.9 | 29.4 | -3 | 13.5 | 14.6
CC(C)(C)c1cc(NC(=O)Nc2ccc(-c3cn4c(n3)sc3cc(OCCN5CCOCC5)ccc34)cc2)no1 [Quizartinib] (top concentration 1000 nM) | 3.68 | -0.82 | 0.98 | -0.32 | 2.08 | 5.18 | 0.98 | -1.52 | 3.48 | -1.52 | 2.78 | 1.18 | 17.8 | -1.02 | -1.52 | 1.38 | 5.38 | -1.32 | -1.52 | 0.18
Nc1cc(F)ccc1NC(=O)/C=C/c1cnn(C/C=C/c2ccccc2)c1 [RGFP966] (top concentration 10000 nM) | 14.6 | 8.94 | 11.1 | 2.34 | 14.8 | 11 | 13.9 | 12.9 | 12.4 | 6.84 | 15.7 | 10.5 | 9.44 | 17.1 | 12.3 | 13.3 | 6.84 | 6.24 | 8.24 | 17.8
CNC(=O)c1cc(Oc2ccc(NC(=O)Nc3ccc(Cl)c(C(F)(F)F)c3)c(F)c2)ccn1 [Regorafenib] (top concentration 10000 nM) | 3.44 | 3.24 | 4.34 | 5.94 | 10.9 | 1.34 | 3.74 | 8.54 | 10 | 1.24 | 6.74 | 3.44 | 7.34 | 4.04 | -1.56 | 4.04 | 4.44 | 1.54 | 10 | 3.24
CN(C)Cc1ccc(S(=O)(=O)n2ccc(/C=C/C(=O)NO)c2)cc1 [Resminostat] (top concentration 10000 nM) | 8.34 | 1.24 | 2.64 | 2.04 | 12.2 | 6.24 | 3.74 | 7.44 | 6.64 | 10.2 | 1.34 | 7.24 | 5.94 | 9.74 | 11.7 | 1.34 | 1.74 | 0.24 | 11.7 | 7.34
COc1cc(OC)c(/C=C/S(=O)(=O)Cc2ccc(OC)c(NCC(=O)O)c2)c(OC)c1 [Rigosertib] (top concentration 10000 nM) | 15.2 | 15.9 | 10.9 | 6.76 | 17.3 | 13.5 | 14.4 | 14.3 | 13.1 | 14.2 | 15.8 | 13.3 | 12 | 17.9 | 13.4 | 16.1 | 9.06 | 12.8 | 14.6 | 10.4
COc1ccc(CCc2nc3cc(-c4c(C)noc4C)ccc3n2C[C@H](C)N2CCOCC2)cc1Cl [SGC-CBP30] (top concentration 25000 nM) | 4.98 | 1.88 | 3.08 | 5.38 | 7.88 | 1.88 | 4.28 | 0.38 | 4.68 | 7.78 | 0.28 | 5.08 | 4.78 | 4.58 | 9.48 | 0.08 | 2.88 | 0.48 | -2.12 | 1.68
CCS(=O)(=O)c1cccc(-c2cc(C(=O)NC3CCN(C)CC3)c(C)c3[nH]c4ncc(C)cc4c23)c1 [TAK-901] (top concentration 1000 nM) | 8.86 | 10.6 | 7.16 | 3.66 | 10.7 | 5.36 | 11.2 | 10.4 | 15.3 | 8.96 | 11.3 | 6.56 | 9.76 | 7.26 | 6.66 | 9.66 | 0.66 | 0.16 | 7.56 | 12.3
Nc1nc(NC2CC2)cc(-c2cccc(Cl)c2Cl)n1 [TH588] (top concentration 25000 nM) | 8.12 | 9.12 | 6.72 | -0.58 | 3.52 | 3.92 | 7.52 | -0.58 | 14.7 | 3.72 | 6.82 | 5.72 | 6.22 | 10.8 | -0.58 | -0.58 | 5.82 | 5.32 | -0.58 | 3.72
CC(=O)Nc1ccc(C(=O)Nc2ccccc2N)cc1 [Tacedinaline] (top concentration 1000 nM) | 2.08 | 0.08 | -0.02 | -0.02 | 0.48 | -0.02 | 2.08 | 12.2 | 6.08 | 0.38 | -0.02 | 1.58 | 0.98 | -0.02 | 1.58 | -0.02 | -0.02 | -0.02 | -0.02 | 0.68
Cn1ncnc1[C@H]1c2n[nH]c(=O)c3cc(F)cc(c23)N[C@@H]1c1ccc(F)cc1 [Talazoparib] (top concentration 1000 nM) | -2.12 | 9.68 | -3.62 | -0.62 | 10.7 | -4.92 | 5.98 | 21.4 | 3.48 | 11.1 | 6.58 | 0.58 | 3.38 | 10.5 | 20.3 | 3.78 | 3.48 | -2.82 | 13.2 | -0.52
COc1cccc2c1c(O)c(C(=O)N(C)c1ccc(C(F)(F)F)cc1)c(=O)n2C [Tasquinimod] (top concentration 10000 nM) | -0.22 | -0.42 | -0.32 | -0.42 | -0.42 | -0.42 | -0.42 | -0.42 | 3.48 | -0.42 | 0.48 | -0.42 | -0.42 | -0.42 | -0.42 | -0.42 | 1.08 | -0.42 | -0.42 | -0.42
Nc1nc2[nH]cnc2c(=S)[nH]1 [Thioguanine] (top concentration 10000 nM) | 15 | 14.2 | 12 | 2.44 | 14.3 | 11.2 | 15.3 | 6.04 | 12.8 | 6.34 | 14.5 | 14.9 | 5.24 | 15.7 | -1.36 | 10.2 | 13.1 | 7.74 | 2.54 | 13.6
